Reference: article PMC11954145, “Antimicrobial and ADME properties of methoxylated, methylated and nitrated 2-hydroxynaphthalene-1 carboxanilides” (ADMET & DMPK, 2025)
≈ marks a conversion by molar mass, not a printed value. Like-named read-outs stand apart in the source and are kept apart here.

Legend:
[1] = tested on: E. coli ATCC 25922; test: Antibacterial screening, broth microdilution MIC; assay type: cell-based; settings: Escherichia coli, ATCC25922; ATCC 25922, 24 h at 37 °C
[2] = tested on: Enterococcus faecalis ATCC 29212; test: Antibacterial screening, broth microdilution MIC; assay type: cell-based; settings: read-out: MIC E. faecalis
[3] = tested on: Mycobacterium tuberculosis ATCC 25177/H37Ra; test: Antimycobacterial screening, broth dilution MIC (Alamar blue); assay type: cell-based; settings: 336 h, H37Ra, 14 days at 37 °C, Alamar blue, read-out: MIC M. tuberculosis
Procedure: The evaluation of in vitro antimycobacterial activity of the compounds was performed against Mycobacterium tuberculosis ATCC 25177/H37Ra, Mycobacterium kansasii DSM 44162 and Mycobacterium smegmatis ATCC 700084.
The broth dilution micro-method in Middlebrook 7H9 medium (Difco, Lawrence, KS, USA) supplemented with ADC Enrichment (Difco) was used to determine the minimum inhibitory concentration (MIC) as previously described. […] The final concentrations of the evaluated compounds, ranging from 256 to 0.125 μg mL^-1, were obtained by twofold serial dilution of the stock solution in a microtiter plate with a sterile medium. Bacterial inocula were prepared by transferring colonies from culture to sterile water. The plate was inoculated by tested microorganisms. The final concentration of bacterial cells was 1.5×10^6 for M. tuberculosis and 10^5 cells in a microtiter plate for other mycobacteria. Isoniazid and rifampicin (Sigma) were used as reference antimycobacterial drugs. Drug-free controls, sterility controls, and controls consisting of medium and DMSO alone were included. The plates were incubated for a defined time at an appropriate temperature (3 days at 37 °C for M. smegmatis, and 14 days at 37 °C for M. tuberculosis and M. kansasii). […] The MICs against M. tuberculosis were evaluated by Alamar blue (Oxoid). After incubation, 10 % of Alamar blue was added to each well, and the plate was incubated for 24 h. The MIC values were assessed as the lowest concentration of the tested compounds, which prevented changing blue resazurin to pink resorufin. The experiments were repeated three times. The minimum inhibitory concentrations (MICs) were defined as the lowest concentration of the compound at which no visible bacterial growth was observed. The MIC value is routinely and widely used in bacterial assays and is a standard detection limit according to the CLSI [60].

[4] = tested on: VRE 725B; test: Antibacterial screening, broth microdilution MIC; assay type: cell-based, vancomycin-resistant E. faecalis; settings: Enterococcus, read-out: MIC VRE 725B
[5] = Lipophilicity determination by RP-HPLC (log k, log D); assay type: physicochemical; settings: for log D6.5: RP-HPLC C18, MeOH 72 % / acetate-buffered saline pH 6.5; for log D7.4: RP-HPLC C18, MeOH 72 % / acetate-buffered saline pH 7.4; for log k (logarithm of the capacity factor): RP-HPLC C18, MeOH 72 % / water 28 %
Source text: An HPLC system Agilent 1200 equipped with a DAD detector (Agilent, Santa Clara, CA, USA) was used. A chromatographic column Symmetry® C18 5 μm, 4.6×250 mm, part No. WAT054275 (Waters Corp., Milford, MA, USA) was used. The HPLC separation process was monitored and evaluated with EZChrom Elite software ver. 3.3.2 (Agilent). Isocratic elution by a mixture of MeOH p.a. (72 %) and H2O-HPLC Mili-Q grade (28 %) as a mobile phase was used for the determination of capacity factor k. Isocratic elution by a mixture of MeOH p.a. (72 %) and acetate-buffered saline (pH 7.4 and pH 6.5) (28 %) as a mobile phase was used for the determination of distribution coefficients expressed as D7.4 and D6.5. The total flow of the column was 1.0 mL min^-1, the injection volume was 20 μL, the column temperature was 40 °C, and the sample temperature was 10 °C. The detection wavelength of 210 nm was chosen. A KI methanolic solution was used to determine the dead times (tD). Retention times (tR) were measured in minutes. The capacity factors k were calculated according to the formula k = (tR–tD)/tD, where tR is the retention time of the solute, and tD is the dead time obtained using an unretained analyte. The distribution coefficients DpH were calculated according to the formula DpH = (tR–tD)/tD. Each experiment was repeated three times.
The capacity factor and distribution coefficients were measured by RP-HPLC on a C18 column with methanol as an organic modifier of the mobile phase. In addition to the experimental lipophilicities, predicted log P values were also calculated using ACD/Percepta, see Table 1. […] The values of σ(Ar) are found in a wide range from 0.01 to 1.36, so the compounds contain substituents with both electron-donating and slightly electron-withdrawing properties.

[6] = tested on: MRSA SA 3202; test: Antibacterial screening, broth microdilution MIC; assay type: cell-based, methicillin-resistant S. aureus; settings: Staphylococcus aureus, clinical isolate, 24 h at 37 °C, read-out: MIC MRSA SA 3202
[7] = tested on: S. aureus ATCC 29213; test: Antibacterial screening, broth microdilution MIC; assay type: cell-based; settings: Staphylococcus aureus, ATCC29213; ATCC 29213, 24 h at 37 °C; read-out: MIC S. aureus
[8] = tested on: VRE 368; test: Antibacterial screening, broth microdilution MIC; assay type: cell-based, vancomycin-resistant E. faecalis; settings: Enterococcus, read-out: MIC VRE 368
[9] = tested on: Mycobacterium kansasii DSM 44162; test: Antimycobacterial screening, broth dilution MIC; assay type: cell-based; settings: DSM44162, 336 h, read-out: MIC M. kansasii
[10] = tested on: VRE 342B; test: Antibacterial screening, broth microdilution MIC; assay type: cell-based, vancomycin-resistant E. faecalis; settings: Enterococcus, read-out: MIC VRE 342B
[11] = tested on: MRSA 63718; test: Antibacterial screening, broth microdilution MIC; assay type: cell-based, methicillin-resistant S. aureus; settings: Staphylococcus aureus, clinical isolate, 24 h at 37 °C, read-out: MIC MRSA 63718
[12] = tested on: Mycobacterium smegmatis ATCC 700084; test: Antimycobacterial screening, broth dilution MIC; assay type: cell-based; settings: Mycolicibacterium smegmatis, ATCC700084, 72 h; ATCC 700084, 3 days at 37 °C; read-out: MIC M. smegmatis
[13] = tested on: MRSA SA 630; test: Antibacterial screening, broth microdilution MIC; assay type: cell-based, methicillin-resistant S. aureus; settings: Staphylococcus aureus, clinical isolate, 24 h at 37 °C, read-out: MIC MRSA SA 630
[14] = ATCC29212, ATCC 29212, 24 h at 37 °C

| SMILES | MIC [1] | MIC [2, 14] | MIC [3] | MIC ([4]; vanA isolate, 24 h at 37 °C) | log D6.5 [5] | log D7.4 [5] | log k (logarithm of the capacity factor) [5] | MIC [6] | MIC [7] | MIC ([8]; vanA isolate, 24 h at 37 °C) | MIC ([9]; DSM 44162, 14 days at 37 °C) | MIC ([10]; vanA isolate, 24 h at 37 °C) | MIC [11] | MIC [12] | MIC [13] | MIC ([2]; ATCC29212, 24 h) | MIC ([4]; 24 h) | MIC ([8]; 24 h) | MIC [9] | MIC ([10]; 24 h) |
| --- | --- | --- | --- | --- | --- | --- | --- | --- | --- | --- | --- | --- | --- | --- | --- | --- | --- | --- | --- | --- |
| Cc1ccccc1NC(=O)c1c(O)ccc2ccccc12 [Compound 8, 2-hydroxy-N-(2-methylphenyl)naphthalene-1-carboxamide] | 462 µM (≈ 128 µg/mL) | 462 µM (≈ 128 µg/mL) | 231 µM (≈ 64.1 µg/mL) | 462 µM (≈ 128 µg/mL) | 0.0745 | 0.0838 | 0.0858 | 462 µM (≈ 128 µg/mL) | 462 µM (≈ 128 µg/mL) | 462 µM (≈ 128 µg/mL) | 115 µM (≈ 31.9 µg/mL) | 462 µM (≈ 128 µg/mL) | 462 µM (≈ 128 µg/mL) | 462 µM (≈ 128 µg/mL) | 462 µM (≈ 128 µg/mL) |  |  |  |  |  |
| COc1ccc(C(F)(F)F)cc1NC(=O)c1c(O)ccc2ccccc12 [Compound 20, 2-Hydroxy-N-[2-methoxy-5-(trifluoromethyl)phenyl]naphthalene-1-carboxamide] | 709 µM (≈ 256 µg/mL) | 709 µM (≈ 256 µg/mL) | 354 µM (≈ 128 µg/mL) | 709 µM (≈ 256 µg/mL) | 0.5323 | 0.5305 | 0.5335 | 709 µM (≈ 256 µg/mL) | 709 µM (≈ 256 µg/mL) | 709 µM (≈ 256 µg/mL) | 709 µM (≈ 256 µg/mL) | 709 µM (≈ 256 µg/mL) | 709 µM (≈ 256 µg/mL) | 709 µM (≈ 256 µg/mL) | 709 µM (≈ 256 µg/mL) |  |  |  |  |  |
| Cc1ccc(NC(=O)c2c(O)ccc3ccccc23)cc1 [Compound 10, 2-hydroxy-N-(4-methylphenyl)naphthalene-1-carboxamide] | 462 µM (≈ 128 µg/mL) | 462 µM (≈ 128 µg/mL) | 231 µM (≈ 64.1 µg/mL) | 462 µM (≈ 128 µg/mL) | 0.1553 | 0.1632 | 0.1658 | 462 µM (≈ 128 µg/mL) |  | 462 µM (≈ 128 µg/mL) | 115 µM (≈ 31.9 µg/mL) | 462 µM (≈ 128 µg/mL) | 462 µM (≈ 128 µg/mL) | > 923 µM | 462 µM (≈ 128 µg/mL) |  |  |  |  |  |
| COc1cccc(NC(=O)c2c(O)ccc3ccccc23)c1 [Compound 3, 2-hydroxy-N-(3-methoxyphenyl)naphthalene-1-carboxamide] | 873 µM (≈ 256 µg/mL) | > 873 µM | 218 µM (≈ 63.9 µg/mL) | > 873 µM | 0.1643 | 0.1717 | 0.1751 |  | 436 µM (≈ 128 µg/mL) | > 873 µM | 109 µM (≈ 32 µg/mL) | > 873 µM | 436 µM (≈ 128 µg/mL) |  | 873 µM (≈ 256 µg/mL) |  |  |  |  |  |
| COc1ccccc1NC(=O)c1c(O)ccc2ccccc12 [Compound 2, 2-hydroxy-N-(2-methoxyphenyl)naphthalene-1-carboxamide] | 873 µM (≈ 256 µg/mL) |  | > 873 µM |  | 0.3015 | 0.3069 | 0.3181 |  |  |  |  |  |  |  |  | > 873 µM | > 873 µM | > 873 µM | > 873 µM | > 873 µM |
| CC1(C)S[C@@H]2[C@H](NC(=O)[C@H](N)c3ccccc3)C(=O)N2[C@H]1C(=O)O [AMP, ampicillin, reference compound] | 45.8 µM (≈ 16 µg/mL) | 2.81 µM (≈ 0.982 µg/mL) |  |  |  |  |  | 45.8 µM (≈ 16 µg/mL) | 5.72 µM (≈ 2 µg/mL) |  |  |  | 45.8 µM (≈ 16 µg/mL) |  | 45.8 µM (≈ 16 µg/mL) |  |  |  |  |  |
